PubChem BioAssay (NCI)
Values joined by “and” are separate entries in the source; they are usually repeats but may differ in a detail not shown here. Equal entries are not always repeated.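 Cells were grown in 96-well plates and exposed to each compound for 48 hours at five concentrations; endpoints were interpolated linearly between bracketing concentrations, or set to the highest concentration if not reached. Abbreviation: GI50, concentration required for 50% inhibition of growth. TGI is the concentration that stops growth completely.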

Tests used:
Assay in all cases: DTP human tumour cell line panel, 48 h
786-0 renal = test system: 786-0 renal
HCC-2998 colon = test system: HCC-2998 colon
HT29 colon = test system: HT29 colon
M14 melanoma = test system: M14 melanoma
NCI-H226 lung = test system: NCI-H226 lung
NCI/ADR-RES ovarian = test system: NCI/ADR-RES ovarian
OVCAR-5 ovarian = test system: OVCAR-5 ovarian
SK-MEL-2 melanoma = test system: SK-MEL-2 melanoma
SK-MEL-28 melanoma = test system: SK-MEL-28 melanoma
SW-620 colon = test system: SW-620 colon

Compound | GI50 (786-0 renal) | TGI (786-0 renal) | GI50 (HCC-2998 colon) | GI50 (HT29 colon) | TGI (HT29 colon) | GI50 (M14 melanoma) | TGI (M14 melanoma) | GI50 (NCI-H226 lung) | TGI (NCI-H226 lung) | GI50 (NCI/ADR-RES ovarian) | GI50 (OVCAR-5 ovarian) | TGI (OVCAR-5 ovarian) | GI50 (SK-MEL-2 melanoma) | TGI (SK-MEL-2 melanoma) | GI50 (SK-MEL-28 melanoma) | TGI (SK-MEL-28 melanoma) | GI50 (SW-620 colon) | TGI (SW-620 colon) | TGI (HCC-2998 colon) | TGI (NCI/ADR-RES ovarian)
COc1cc(OC)cc(C2C3=C(COC3=O)Nc3cc(OC)ccc32)c1 (stereo not given) | 0.0203 µM | 30.9 µM | < 0.01 µM | < 10 nM | > 36.6 µM | < 0.01 µM | 0.0111 µM | < 0.01 µM | 0.0207 µM | < 10 nM | < 0.0201 µM | > 100 µM | 0.335 µM | > 100 µM | < 0.01 µM | > 94.2 µM | < 0.01 µM | > 70.8 µM | – | –
COC(=O)Nc1nc2ccccc2[nH]1 | – | > 100 µM | – | – | > 100 µM | – | > 100 µM | – | > 100 µM | – | – | > 100 µM | – | > 100 µM | – | > 100 µM | – | > 100 µM | > 100 µM | 21 µM
COc1cccc2cc(N(C)c3nc(C)nc4c3CCC4)ccc12 | < 0.01 µM | 14.4 µM | < 0.01 µM | < 10 nM | 0.608 µM | < 0.01 µM | 14 µM | 12.7 µM | 32.4 µM | < 10 nM | < 0.01 µM | 19.6 µM | < 0.01 µM | 14.2 µM | 4.7 µM | 21.6 µM | < 0.01 µM | 18.6 µM | 14 µM | 16.1 µM
O=C(CN(/C=C/C(=O)C(F)(F)F)c1ccc(Cl)cc1)c1ccc(Cl)c(Cl)c1 | 11.5 µM | 24.5 µM | 12.6 µM | 3960 nM | > 100 µM | 6.51 µM | 19.3 µM | 12.5 µM | 30.1 µM | 6030 nM | 13.4 µM | 27.1 µM | 7.15 µM | 20.7 µM | 16.7 µM | 45 µM | 13.2 µM | 30.5 µM | 26.2 µM | 19.7 µM
N#CC1=C(N)Oc2c(ccc3ccccc23)C1c1cc(=O)oc2ccc(Cl)cc12 (stereo not given) | 0.646 µM | > 100 µM | 2.72 µM | 1910 nM | 6.89 µM | 0.441 µM | > 100 µM | 26 µM | 81.6 µM | 522 nM | 4.1 µM | > 100 µM | 0.972 µM | 44.7 µM | 10.6 µM | 74.9 µM | 0.411 µM | > 100 µM | 19.5 µM | 36.8 µM
CCCCCC(O)C(O)CCC[C@H](O)[C@H]1CC[C@H]([C@H]2CC[C@H]([C@H](O)CCCCCCCCCCCCC3=C[C@H](C)OC3=O)O2)O1 (stereo not given in full) | 11.1 µM | 30.8 µM | – | – | 8.31 µM | 6.98 µM | 29.9 µM | 5.25 µM | 35.9 µM | 2750 nM | – | 35.4 µM | 15.8 µM | 5.16 µM and 37.4 µM | 14.7 µM | 73 µM | 7.51 µM | > 100 µM | 41.3 µM | 8.99 µM and 29.1 µM
CCCCCCCCCCCCC(O)c1ccco1 (stereo not given) | 19.7 µM | 36.6 µM | 18.4 µM | 35800 nM | > 100 µM | 21 µM | 37.9 µM | 20.8 µM | 37.9 µM | 16400 nM | 16.1 µM | 30.3 µM | 22 µM | 46 µM | 24.3 µM | 55.3 µM | 16.7 µM | 32 µM | 32.3 µM | 30.8 µM
